Experimental data published in patent publication US4835153A, “Malonic acid derivatives” (Nihon Nohyaku Co., Ltd., priority 1986, dated 1989).

Legend:
[1] = test system: hepatic disorder caused by carbon tetrachloride (liver injury, plasma glutamic pyruvic transaminase); assay: Effect of suppressing hepatic disorder caused by carbon tetrachloride; assay type: in vivo, mice (dd-strain, male); parameters: key to Liver injury index: liver injury index 0 = healthy, 2 slight, 4 evident, 6 serious injury; conditions: 30 mg/kg oral, 6 h before CCl4 0.05 ml/kg oral, 24 h after CCl4, mean of five mice; for Liver injury index: 0 healthy, 2 slightly affected, 4 evident injury, 6 serious injury; for p-GPT (plasma glutamic pyruvic transaminase activity): Reitman-Frankel, Karmen Units, >=2,100 calculated as 2,100
Procedure: Test Example 1 Effect of suppressing hepatic disorder caused by carbon tetrachloride. Test Method […] Six hours thereafter, carbon tetrachloride was orally administered in a proportion of 0.05 ml/kg. The animals were sacrificed 24 hours after the administration of carbon tetrachloride, and the extent of liver injury was grossly examined. On the other hand, blood was collected from the animal at the time of the sacrifice, and centrifuged to obtain plasma. The plasma glutamic pyruvic transminase (GPT) activity was determined according to the method of Reitman-Frankel. The activity was expressed in terms of Karmen Units (K.U.). The conditions of the liver were expressed in terms of liver injury index as follows. […] When the GPT activity was 2,100 units or higher, […], and the activity was calculated as 2,100 units for reasons of convenience.

[2] = acute oral toxicity to male rat (LD50); conditions: in vivo
Procedure: For example, LD50 value (acute oral toxicity to male rat) of the compound No. 20 is more than 1,000 mg/kg.

For `CCOC(=O)C(C(=O)OCC)=C1SC2NCCNC2S1` (stereo not drawn) [Compound 1], the Liver injury index [1] was 2.0 and the “p-GPT (plasma glutamic pyruvic transaminase activity)” value (“p-GPT” below) [1] was 225 K.U.
For `CC(C)OC(=O)C(C(=O)OC(C)C)=C1SC2NCCNC2S1` (stereo not drawn) [Compound 2, Diisopropyl(2,5-diaza-7,9-dithiabicyclo-[4,3,0]-nonane-8-ylidene)malonate], the Liver injury index [1] was 0.3 and the “p-GPT” value [1] was 24.4 K.U.
With `CCCOC(=O)C(C(=O)OCCC)=C1SC2NCCNC2S1` (stereo not drawn) [Compound 3] the Liver injury index [1] was 0.1 and the “p-GPT” value [1] was 53.0 K.U.
In the case of `CCCOC(=O)C(C(=O)OCCC)=C1SC2C(S1)N(C(C)=O)CCN2CC` (stereo not drawn) [Compound 10], the Liver injury index [1] is reported as 4.5 and the “p-GPT” value [1] is reported as 2,000 K.U.
With `CC(C)OC(=O)C(C(=O)OC(C)C)=C1SC2C(S1)N(C)CCN2C` (stereo not drawn) [Compound 16, Diisopropyl(2,5-dimethyl-2,5-diaza-7,9-dithiabicyclo-[4,3,0]-nonane-8-ylidene)malonate] the Liver injury index [1] was 0.6 and the “p-GPT” value [1] was 32 K.U.
For `COC(=O)C(C(=O)OC)=C1SC2C(S1)N(C)CCN2C` (stereo not drawn) [Compound 18], the Liver injury index [1] was 1.8 and the “p-GPT” value [1] was 166 K.U.
In the case of `CCOC(=O)C(C(=O)OCC)=C1SC2C(S1)N(C)CCN2C` (stereo not drawn) [Compound 19], the Liver injury index [1] is reported as 1.6 and the “p-GPT” value [1] is reported as 99 K.U.
`CCCOC(=O)C(C(=O)OCCC)=C1SC2C(S1)N(C)CCN2C` (stereo not drawn) [Compound 20] gave an LD50 [2] greater than 1000 mg/kg.
For `CCCCOC(=O)C(C(=O)OCCCC)=C1SC2C(S1)N(C)CCN2C` (stereo not drawn) [Compound 23], the Liver injury index [1] was 1.2 and the “p-GPT” value [1] was 10.2 K.U.
With `CCN1CCN(CC)C2SC(=C(C(=O)OC)C(=O)OC)SC21` (stereo not drawn) [Compound 25] the Liver injury index [1] was 0.4 and the “p-GPT” value [1] was 13.2 K.U.
In the case of `CC(C)OC(=O)C(C(=O)OC(C)C)=C1SC2N(C)CCN(C)C2(C)S1` (stereo not drawn) [Compound 28], the Liver injury index [1] is reported as 1.5 and the “p-GPT” value [1] is reported as 547 K.U.
For `CCCCOC(=O)C(C(=O)OCCCC)=C1SC2C(S1)N(CC)CCN2CC` (stereo not drawn) [Compound 30], the Liver injury index [1] was 0.8 and the “p-GPT” value [1] was 22.8 K.U.
With `CCN1CCN(CC)C2(C)SC(=C(C(=O)OC(C)C)C(=O)OC(C)C)SC12` (stereo not drawn) [Compound 33] the Liver injury index [1] was 1.2 and the “p-GPT” value [1] was 925 K.U.
For `CCCOC(=O)C(C(=O)OCCC)=C1SC2C(S1)N(CC)CCN2CC` (stereo not drawn) [Compound 37], the Liver injury index [1] was 1.4 and the “p-GPT” value [1] was 143 K.U.
For `CCN1CCN(CC)C2SC(=C(C(=O)OC(C)(C)C)C(=O)OC(C)(C)C)SC21` (stereo not drawn) [Compound 40], the Liver injury index [1] was 1.8 and the “p-GPT” value [1] was 164 K.U.
For `C=CCN1CCN(CC=C)C2SC(=C(C(=O)OCCC)C(=O)OCCC)SC21` (stereo not drawn) [Compound 43], the Liver injury index [1] was 0.2 and the “p-GPT” value [1] was 51 K.U.
For `C=CCOC(=O)C(C(=O)OCC=C)=C1SC2C(S1)N(CC=C)CCN2CC=C` (stereo not drawn) [Compound 49], the Liver injury index [1] was 1.2 and the “p-GPT” value [1] was 23.8 K.U.
With `COCC(C)OC(=O)C(C(=O)OC(C)COC)=C1SC2C(S1)N(C)CCN2C` (stereo not drawn) [Compound 51] the Liver injury index [1] was 0.4 and the “p-GPT” value [1] was 18.2 K.U.
For `CCOC(=O)C(C(=O)OC)=C1SC2C(S1)N(C)CCN2C` (stereo not drawn) [Compound 54], the Liver injury index [1] was 0 and the “p-GPT” value [1] was 13.4 K.U.
With `CCOC(=O)C(C(=O)OC(C)C)=C1SC2C(S1)N(C)CCN2C` (stereo not drawn) [Compound 56] the Liver injury index [1] was 0 and the “p-GPT” value [1] was 16.8 K.U.
In the case of `CCCCOC(=O)C(C(=O)OCC)=C1SC2C(S1)N(C)CCN2C` (stereo not drawn) [Compound 59], the Liver injury index [1] is reported as 0.5 and the “p-GPT” value [1] is reported as 109.2 K.U.
With `CCC(COC)OC(=O)C(C(=O)OC(CC)COC)=C1SC2C(S1)N(C)CCN2C` (stereo not drawn) [Compound 63] the Liver injury index [1] was 0.5 and the “p-GPT” value [1] was 32.8 K.U.
With `CCOC(=O)C(C(=O)OCC(C)C)=C1SC2C(S1)N(CC)CCN2CC` (stereo not drawn) [Compound 67] the Liver injury index [1] was 2.5 and the “p-GPT” value [1] was 1,620 K.U.
For `CCCCOC(=O)C(C(=O)OC(C)C)=C1SC2C(S1)N(CC)CCN2CC` (stereo not drawn) [Compound 68], the Liver injury index [1] was 1.5 and the “p-GPT” value [1] was 914.6 K.U.
With `CCOC(=O)C(C(=O)OC(C)(C)C)=C1SC2C(S1)N(CC)CCN2CC` (stereo not drawn) [Compound 72] the Liver injury index [1] was 0.4 and the “p-GPT” value [1] was 428.6 K.U.
In the case of `Cc1ccc(COC(=O)C(C(=O)OC(C)C)=C2SC3C(S2)N(C)CCN3C)cc1` (stereo not drawn) [Compound 74], the Liver injury index [1] is reported as 0.6 and the “p-GPT” value [1] is reported as 25 K.U.
In the case of `COc1ccc(COC(=O)C(C(=O)OC(C)C)=C2SC3C(S2)N(C)CCN3C)cc1` (stereo not drawn) [Compound 75, Isopropyl 4-methoxybenzyl(2,5-dimethyl-2,5-diaza-7,9-dithiabicycl-[4,3,0]-nonane-8-ylidene)malonate], the Liver injury index [1] is reported as 0 and the “p-GPT” value [1] is reported as 20 K.U.
For `CC(C)OC(=O)C(C(=O)OC(C)c1ccc(Cl)cc1Cl)=C1SC2C(S1)N(C)CCN2C` (stereo not drawn) [Compound 79], the Liver injury index [1] was 1.4 and the “p-GPT” value [1] was 1,060 K.U.
In the case of `Cc1ccc(C(C)OC(=O)C(C(=O)OC(C)C)=C2SC3C(S2)N(C)CCN3C)cc1` (stereo not drawn) [Compound 81], the Liver injury index [1] is reported as 1.2 and the “p-GPT” value [1] is reported as 120 K.U.
With `CCOC(=O)C(C(=O)OC(C)c1ccc(Cl)cc1)=C1SC2C(S1)N(C)CCN2C` (stereo not drawn) [Compound 83] the Liver injury index [1] was 0.8 and the “p-GPT” value [1] was 38.6 K.U.
With `CCOC(=O)C(C(=O)OC(C)c1ccccc1)=C1SC2C(S1)N(C)CCN2C` (stereo not drawn) [Compound 84] the Liver injury index [1] was 0.8 and the “p-GPT” value [1] was 37 K.U.
For `CCC(C)OC(=O)C(C(=O)OC(C)CC)=C1SC2NCCNC2S1` (stereo not drawn) [Compound 87], the Liver injury index [1] was 0.2 and the “p-GPT” value [1] was 21 K.U.
In the case of `CC(C)OC(=O)C(C(=O)OC(C)C)=C1SC2C(S1)N(C)CCN2C` (stereo not drawn) [Compound 94], the Liver injury index [1] is reported as 2.0 and the “p-GPT” value [1] is reported as 1,534 K.U.
With `CCCOC(=O)C(C(=O)OCCC)=C1SC2NCCNC2(C)S1.Cl` (stereo not drawn) [Compound 96, Di-n-propyl(6-methyl-2,5-diaza-7,9-dithiabicyclo-[4,3,0]-nonane-8-ylidene)malonate hydrochloride salt] the Liver injury index [1] was 0.1 and the “p-GPT” value [1] was 28.0 K.U.
For `CC(C)OC(=O)C(C(=O)OC(C)C)=C1SC2NCCNC2(C)S1` (stereo not drawn) [Compound 97], the Liver injury index [1] was 0.2 and the “p-GPT” value [1] was 45.0 K.U.
